Measurements taken from patent US4987139A, “FK-520 microbial transformation product” (Merck & Co., Inc., priority 1989, dated 1991).
“Also recorded” adds a separate entry of the source. Where two headings read alike, the source gives them in different places.

What was measured:
[1] = Solubility (physical characteristics); assay type: physicochemical; conditions: methanol
mouse T lymphocytes = assay: T-cell proliferation assay (ionomycin plus PMA induced T-cell stimulation, tritiated thymidine uptake); assay type: cell-based, mouse (C57B1/6); conditions: for IC50: T-cell proliferation
Method: The principle of this assay is to measure the proliferation of mouse T lymphocytes stimulated with the combination of ionomycin plus PMA. A positive sample in this assay will inhibit T-cell proliferation, as indicated by reduced tritiated thymidine uptake.
Purified L-687,795, as prepared by HPLC above, was dissolved in absolute ethanol at 10 mg/ml.
Spleens from C57B1/6 mice were taken under sterile conditions and gently dissociated in ice-cold RPMI 1640 culture medium (GIBCO, Grand Island, N.Y.) supplemented with 10% heat-inactivated fetal calf serum (GIBCO). Cells were pelleted by centrifugation at 1500 rpm for 8 minutes. Contaminating red cells were removed by treating the pellet with ammonium chloride lysing buffer (GIBCO) for 2 minutes at 4° C. Cold medium was added and cells were again centrifuged at 1500 rpm for 8 minutes. T lymphocytes were then isolated by separation of the cell suspension on nylon wool columns as follows: Nylon wool columns were prepared by packing approximately 4 grams of washed and dried nylon wool into 20 ml plastic syringes. The columns were sterilized by autoclaving at 250° F for 30 minutes. Nylon wool columns were wetted with warm (37° C) culture medium and rinsed with the same medium. Washed spleen cells resuspended in warm medium were slowly applied to the nylon wool. The columns were then incubated in an upright position at 37° C for 1 hour. Non-adherent T lymphocytes were eluted from the columns with warm culture medium and the cell suspensions were spun as above.
Purified T lymphocytes were resuspended at 2.5×10^5 cells/ml in complete culture medium composed of RPMI 1640 medium with 10% heat-inactivated fetal calf serum, […], 1 mM sodium pyruvate, 2×10^-5 M 2-mercaptoethanol and 50 μg/ml gentamycin. Ionomycin was added at 250 ng/ml and PMA at 10 ng/ml. The cell suspension was immediately distributed into 96 well flat-bottom microculture plates (Costar) at 200 μl/well. The control, being the medium without test drug, and various below-indicated dilutions of the sample (above-describedpurified L-687,795) to be tested were then added in triplicate wells at 20 μl/well. L-683,590 was used as a standard. The culture plates were then incubated at 37° C. in a humidified atmosphere of 5% CO2 -95% air for 44 hours. The proliferation of T lymphocytes was assessed by measurement of tritiated thymidine incorporation. After 44 hours of culturing, the cells were pulse-labelled with 2 μ Ci/well of tritiated thymidine (NEN, Cambridge, MA). After another 4 hours of incubation, cultures were harvested on glass fiber filters using a multiple sample harvester. Radioactivity of filter discs corresponding to individual wells was measured by standard liquid scintillation counting methods (Betacounter). Mean counts per minute of replicate wells were calculated and the results expressed as percent inhibition of tritiated thymidine uptake (proliferation) as follows: [formula]
1. Mouse T cell cultures were pulsed with ^3 Hthymidine for 4 hours
prior to harvesting at 48 hours.

[2] = reputed; EPO Publication No. 0184162; cited from earlier work

CCC1C=C(C)CC(C)CC(O)C(O)C2CC(C)C(O)(O2)C(=O)C(=O)N2CCCCC2C(=O)OC(C(C)=CC2CCC(O)C(O)C2)C(C)C(O)CC1=O [L-687,795]
Solubility [1]: Solubility in methanol | Inhibition of proliferation on addition of recombinant human IL2 (mouse T lymphocytes; 50 units/m recombinant human IL2 added at initiation of culture): reversed | inhibition at 0.39 µg/mL (mouse T lymphocytes; Mus musculus, T-lymphocyte, 390 ng/ml, ionomycin + PMA, 48 h): 0% | inhibition at 0.57 µg/mL (mouse T lymphocytes; Mus musculus, T-lymphocyte, 570 ng/ml, ionomycin + PMA, 48 h): 2% | inhibition at 0.87 µg/mL (mouse T lymphocytes; Mus musculus, T-lymphocyte, 870 ng/ml, ionomycin + PMA, 48 h): 29% | inhibition at 1.3 µg/mL (mouse T lymphocytes; Mus musculus, T-lymphocyte, 1,300 ng/ml, ionomycin + PMA, 48 h): 60% | inhibition at 1.9 µg/mL (mouse T lymphocytes; Mus musculus, T-lymphocyte, 1,900 ng/ml, ionomycin + PMA, 48 h): 78% | inhibition at 2.9 µg/mL (mouse T lymphocytes; Mus musculus, T-lymphocyte, 2,900 ng/ml, ionomycin + PMA, 48 h): 81% | inhibition at 4.4 µg/mL (mouse T lymphocytes; Mus musculus, T-lymphocyte, 4,400 ng/ml, ionomycin + PMA, 48 h): 88% | inhibition at 6.6 µg/mL (mouse T lymphocytes; Mus musculus, T-lymphocyte, 6,600 ng/ml, ionomycin + PMA, 48 h): 90% | inhibition at 10 µg/mL (mouse T lymphocytes; Mus musculus, T-lymphocyte, 10,000 ng/ml, ionomycin + PMA, 48 h): 91% | IC50 (mouse T lymphocytes; Mus musculus, T-lymphocyte, general range, read-out: IC50, generally in the range of): 1 to 1.4 µM | IC50 (mouse T lymphocytes; Mus musculus, T-lymphocyte, read-out: IC50): 1.19 µM | inhibition of T-cell activation / immunosuppressive activity by the T-cell proliferation assay (mouse T lymphocytes; qualitative): positive inhibition of T-cell activation; also recorded: positive immunosuppressive activity

C=CC[C@@H]1/C=C(\C)C[C@H](C)C[C@H](OC)[C@H]2O[C@@](O)(C(=O)C(=O)N3CCCC[C@H]3C(=O)O[C@H](/C(C)=C/[C@@H]3CC[C@@H](O)[C@H](OC)C3)[C@H](C)[C@@H](O)CC1=O)[C@H](C)C[C@@H]2OC [FK-506]
times more effective than cyclosporin [2]: 100 times

CC[C@@H]1/C=C(\C)C[C@H](C)C[C@H](OC)[C@H]2O[C@@](O)(C(=O)C(=O)N3CCCC[C@H]3C(=O)O[C@H](/C(C)=C/[C@@H]3CC[C@@H](O)[C@H](OC)C3)[C@H](C)[C@@H](O)CC1=O)[C@H](C)C[C@@H]2OC [L-683,590, reference compound]
inhibition at 0.01 µg/mL (mouse T lymphocytes; Mus musculus, T-lymphocyte, 10 ng/ml, standard): 99%
